Test results reported in PubChem BioAssay (NCI).
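Test compounds were applied to cells in 96-well plates for 48 hours at 5 doses. GI50 marks 50% less growth. TGI marks complete inhibition of growth.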

Tested on: NCI-H460 lung
Test: DTP human tumour cell line panel, 48 h

SMILES | TGI [µM] | GI50 [µM]
C/C(CC(=O)Nc1ccc(C)c(C)c1)=N\N(c1ccccc1)c1ccccc1 | > 100 | –
COC(=O)/C(=N\NC(N)=S)C(C(=O)OC)C(=O)C(=O)Nc1ccc(C)cc1 (configuration not stated) | > 100 | –
O=C(OC1CCC(=C2SCCCS2)[C@H]1C1SCCCS1)c1ccccc1 (some centres not stated) | > 100 | –
O=C(/C(=C/c1ccc(Cl)cc1)c1ccccc1)c1ccccc1 | 34.8 | –
CC1(C)COC(c2cccc3c2C(=O)c2cccc(Cl)c2-3)=N1 | > 100 | –
CN(C)CCC(/C=C/c1ccccc1)=N\Nc1ccccc1 | 10.7 | –
CCOC(=O)c1ccc(/C(C)=N/NC(N)=S)cc1 | > 100 | –
c1ccc2c(OCCSCCCCCCCCCCSCCOc3cccc4ccccc34)cccc2c1 | > 100 | –
NC(N)=N/N=C/c1c(Cl)cccc1Cl | 32.5 | 15.6
Cc1cc2c(=O)c3ccccc3[nH]c2c(C(N)=O)c1C | > 100 | –
O=C(Nc1cccc(C(F)(F)F)c1)c1ccc(NC2=C(Cl)C(=O)N(Cc3ccc(Cl)cc3Cl)C2=O)cc1 | 31 | 8.38
CN1CCC(=O)/C(=C/c2ccccc2)C1 | 41.8 | –

Tested on: UO-31 renal
Test: DTP human tumour cell line panel, 48 h

SMILES | TGI [µM] | GI50 [µM]
C#CC1/C(=C\C(=O)OC)CCCC1O (configuration not stated) | > 100 | –
CC12CCC(=O)C[C@H]1CCC(OC=O)C2Br (some centres not stated) | > 100 | –
Clc1cc2c(c(CSc3nc4ccccc4n4cccc34)c1)OCOC2 | > 100 | > 100
CN1CCN(c2ccc(Nc3cc(-c4cccc(-n5ccc6cc(C7CC7)cc(F)c6c5=O)c4CO)cn(C)c3=O)nc2)CC1 | 3.46 | 1.72
COc1cnc2c(c1)C(=O)c1c-2n(CCCNC2=NCCS2)c(=O)c2cc([N+](=O)[O-])ccc12 | 1.19 | < 0.01
COc1ccc(OCC(=O)O)c2c1CCCC2=O | > 100 | –
Cc1nc(Nc2ccc(Cl)cc2)sc1C(=O)NNC(=S)NN | 30.2 | –
CCOC(=O)N[C@H]1CCc2cc(OC)c(OC)c(OC)c2-c2ccc(SC)c(=O)cc21 | > 100 | 0.254
Cc1ccc2nc(/C(=C/c3ccc(/C=C(\NC(=O)c4ccccc4)c4nc5ccc(C)cc5[nH]4)c(C)c3)NC(=O)c3ccccc3)[nH]c2c1 | 30.8 | –
COC1C(OC(=S)Nc2ccccc2)c2ccccc2N1C(C)=O (configuration not stated) | > 100 | –
O=C(Nc1cccc(Cl)c1)C(=O)C(C(=O)c1ccc2ccccc2c1)C1OC(=O)c2ccccc21 (configuration not stated) | 29.9 | –
CC1=Cc2cccc(C)c2C(=O)C1=O | 27.1 | –
CC(C)(/C=C(\C#N)C(=O)N1CCC[C@@H](n2nc(-c3ccc(Oc4ccccc4)cc3F)c3c(N)ncnc32)C1)N1CCN(C2COC2)CC1 | 10.6 | 2.82
Cc1ccc(C)c(NC(=O)c2cccc([N+](=O)[O-])c2O)c1 | 51.9 | –
COCC(OC)C(CC=C(C#N)C#N)OC (configuration not stated) | > 100 | –
NC1CCN(Cc2ccccc2)CC1 | > 100 | > 100
NNC(=O)CNc1cccc(Br)c1 | > 100 | –
N#CC(C(=O)/C(=N\NC(N)=O)C(C#N)c1ccc(Cl)cc1)c1ccc(Cl)cc1 (configuration not stated) | > 100 | –
CC(C)(C)c1cc(C(P(=O)(O)O)P(=O)(O)O)cc(C(C)(C)C)c1O | > 100 | –

SMILES | TGI [µM] | GI50 [µM]
CC(C)C1=Cc2ccc3c(c2C(=O)C1=O)CCCC3(C)C | 13.2 | –
Nc1ncn([C@@H]2O[C@H](CO)[C@@H](O)[C@H]2O)c(=O)n1 | 9.97 | 1.1
CSc1nc(SC)c2c(C#N)[nH]nc2n1 | > 100 | –
COc1c(O)c2c(=O)cc3c4c5c(cc(=O)c6c(O)c(OC)c(CC(C)O)c(c(c1CC(C)O)c24)c65)OCO3 (configuration not stated) | 5.45 | –
CC(=O)Nc1ccc(-c2csc(Nc3cccc(-c4csc(C)n4)c3)n2)cc1 | 22.8 | 6.73
COc1ccc(CCN(C)C2CCC(C#N)(c3ccc(OC)c(OC)c3)CC2)cc1OC (configuration not stated) | > 100 | –
COc1ccc(C(=O)Nc2ccc(O)c(=O)cc2)cc1 | 47 | –
CCOC(=O)c1nc2c(OC)nn(O)cc-2c1[N+](=O)[O-] | 42.4 | –
C/C(CC(=O)Nc1ccc(C)c(C)c1)=N\N(c1ccccc1)c1ccccc1 | > 100 | –
COC(=O)/C(=N\NC(N)=S)C(C(=O)OC)C(=O)C(=O)Nc1ccc(C)cc1 (configuration not stated) | > 100 | –
O=C(OC1CCC(=C2SCCCS2)[C@H]1C1SCCCS1)c1ccccc1 (some centres not stated) | > 100 | –
O=C1CCC2(c3ccc(Cl)cc3)Nc3cc(Cl)ccc3N12 (configuration not stated) | 29.2 | –
O=C(/C(=C/c1ccc(Cl)cc1)c1ccccc1)c1ccccc1 | > 100 | –
CC1(C)COC(c2cccc3c2C(=O)c2cccc(Cl)c2-3)=N1 | > 100 | –
CN(C)CCC(/C=C/c1ccccc1)=N\Nc1ccccc1 | 2.8 | –
c1ccc2c(OCCSCCCCCCCCCCSCCOc3cccc4ccccc34)cccc2c1 | > 100 | –
NC(N)=N/N=C/c1c(Cl)cccc1Cl | 64.7 | 16.5
Cc1cc2c(=O)c3ccccc3[nH]c2c(C(N)=O)c1C | > 100 | –
CN1CCC(=O)/C(=C/c2ccccc2)C1 | 32.6 | –

Tested on: OVCAR-4 ovarian
Test: DTP human tumour cell line panel, 48 h

SMILES | TGI [µM] | GI50 [µM]
C#CC1/C(=C\C(=O)OC)CCCC1O (configuration not stated) | > 100 | –
CC12CCC(=O)C[C@H]1CCC(OC=O)C2Br (some centres not stated) | > 100 | –
COc1cnc2c(c1)C(=O)c1c-2n(CCCNC2=NCCS2)c(=O)c2cc([N+](=O)[O-])ccc12 | 2.58 | 0.482
COc1ccc(OCC(=O)O)c2c1CCCC2=O | > 100 | –
Cc1nc(Nc2ccc(Cl)cc2)sc1C(=O)NNC(=S)NN | 32.7 | –
CCOC(=O)N[C@H]1CCc2cc(OC)c(OC)c(OC)c2-c2ccc(SC)c(=O)cc21 | > 100 | 0.0677
COc1ccc2c(c1OCC(=O)O)C(=O)C(CCC(=O)O)CC2 (configuration not stated) | > 100 | –
COC1C(OC(=S)Nc2ccccc2)c2ccccc2N1C(C)=O (configuration not stated) | > 100 | –
O=C(Nc1cccc(Cl)c1)C(=O)C(C(=O)c1ccc2ccccc2c1)C1OC(=O)c2ccccc21 (configuration not stated) | 33 | –
CC1=Cc2cccc(C)c2C(=O)C1=O | 10.1 | –
CC(C)(/C=C(\C#N)C(=O)N1CCC[C@@H](n2nc(-c3ccc(Oc4ccccc4)cc3F)c3c(N)ncnc32)C1)N1CCN(C2COC2)CC1 | 20.4 | 5.69
Cc1ccc(C)c(NC(=O)c2cccc([N+](=O)[O-])c2O)c1 | 80.8 | –
COCC(OC)C(CC=C(C#N)C#N)OC (configuration not stated) | > 100 | –
NC1CCN(Cc2ccccc2)CC1 | > 100 | > 100
On1c(-c2ccccc2)c(-c2ccccc2N2CCCC2)c2ccccc21 | > 100 | –
NNC(=O)CNc1cccc(Br)c1 | > 100 | –
N#CC(C(=O)/C(=N\NC(N)=O)C(C#N)c1ccc(Cl)cc1)c1ccc(Cl)cc1 (configuration not stated) | > 100 | –
CC(C)(C)c1cc(C(P(=O)(O)O)P(=O)(O)O)cc(C(C)(C)C)c1O | > 100 | –

SMILES | TGI [µM] | GI50 [µM]
CC(C)C1=Cc2ccc3c(c2C(=O)C1=O)CCCC3(C)C | 3.48 | –
CSc1nc(SC)c2c(C#N)[nH]nc2n1 | > 100 | –
COc1c(O)c2c(=O)cc3c4c5c(cc(=O)c6c(O)c(OC)c(CC(C)O)c(c(c1CC(C)O)c24)c65)OCO3 (configuration not stated) | 2.74 | –
COc1ccc(CCN(C)C2CCC(C#N)(c3ccc(OC)c(OC)c3)CC2)cc1OC (configuration not stated) | > 100 | –
CCOC(=O)c1nc2c(OC)nn(O)cc-2c1[N+](=O)[O-] | 34.9 | –
C/C(CC(=O)Nc1ccc(C)c(C)c1)=N\N(c1ccccc1)c1ccccc1 | > 100 | –
COC(=O)/C(=N\NC(N)=S)C(C(=O)OC)C(=O)C(=O)Nc1ccc(C)cc1 (configuration not stated) | > 100 | –
O=C(OC1CCC(=C2SCCCS2)[C@H]1C1SCCCS1)c1ccccc1 (some centres not stated) | > 100 | –
O=C1CCC2(c3ccc(Cl)cc3)Nc3cc(Cl)ccc3N12 (configuration not stated) | 23.1 | –
O=C(/C(=C/c1ccc(Cl)cc1)c1ccccc1)c1ccccc1 | 66.9 | –
CC1(C)COC(c2cccc3c2C(=O)c2cccc(Cl)c2-3)=N1 | > 100 | –
CN(C)CCC(/C=C/c1ccccc1)=N\Nc1ccccc1 | 17.1 | –
CCOC(=O)c1ccc(/C(C)=N/NC(N)=S)cc1 | > 100 | –
NC(N)=N/N=C/c1c(Cl)cccc1Cl | > 100 | 25.3
Cc1cc2c(=O)c3ccccc3[nH]c2c(C(N)=O)c1C | > 100 | –
O=C(Nc1cccc(C(F)(F)F)c1)c1ccc(NC2=C(Cl)C(=O)N(Cc3ccc(Cl)cc3Cl)C2=O)cc1 | 42.6 | 11.1
CN1CCC(=O)/C(=C/c2ccccc2)C1 | 32.5 | –
